Results: patent publication US6492383B1, “Thienopyrimidine and thienopyridine derivatives useful as anticancer agents” (Pfizer Inc., priority 1998, dated 2002)
Where a name gives a salt, the structure may show the parent alone.

Compared with `COC(=O)CCNCc1ccc(-c2cc3ncnc(Nc4ccc5[nH]ccc5c4)c3s2)cc1` (as salt: HCl) [Example 17, 3-{4-[4-(1H-Indol-5-ylamino)-thieno[3,2-d]pyrimidin-6-yl]-benzylamino}-propionic Acid Methyl Ester], `CC(=O)NCCNCc1ccc(-c2cc3ncnc(Nc4ccc5[nH]ccc5c4)c3s2)cc1` [Example 43, N-(2-{4-[4-(1H-Indol-5-ylamino)-thieno[3,2-d]pyrimidin-6-yl]-benzylamino}-ethyl)-acetamide] is higher in melting point: 105 to 118 °C for the first, 142 to 155 °C for the second.

Compared with `Cc1cccc(Nc2ncnc3cc(-c4ccccc4)sc23)c1` (as salt: HCl) [Example 92, (6-Phenyl-thieno[3,2-d]pyrimidin-4-yl)-m-tolyl-amine], `Cc1cccc(Nc2ccc(Nc3ncnc4cc(-c5ccccc5)sc34)cc2)c1` [Example 63, N-(6-Phenyl-thieno[3,2-d]pyrimidin-4-yl)-N′-m-tolyl-benzene-1,4-diamine] is lower in melting point: 238 to 241 °C for the first, 170 to 171 °C for the second.

Compared with `CNCc1ccc(-c2cc3ncnc(Nc4ccc5[nH]ccc5c4)c3s2)cc1` (as salt: mesylate) [Example 25, (1H-Indol-5-yl)-[6-(4-methylaminomethyl-phenyl)-thieno[3,2-d]pyrimidin-4-yl]-amine], `CCc1ccc(-c2cc3ncnc(Nc4ccc5[nH]ccc5c4)c3s2)cc1` [Example 13, [6-(4-Ethyl-phenyl)-thieno[3,2-d]pyrimidin-4-yl]-(1H-indol-5-yl)-amine] is higher in melting point: 140 to 147 °C for the first, 171 to 182 °C for the second.

`CN1CCN(Cc2ccc(-c3cc4ncnc(Nc5ccc6[nH]ccc6c5)c4s3)cc2)CC1` (as salt: mesylate) [Example 26, (1H-Indol-5-yl)-{6-[4-(4-methyl-piperazin-1-ylmethyl)-phenyl]-thieno[3,2-d]pyrimidin-4-yl}-amine] and `c1nc(Nc2ccc3[nH]ccc3c2)c2sc(-c3ccc(CN4CCOCC4)cc3)cc2n1` [Example 37, (1H-Indol-5yl)-[6-(4-morpholin4-ylmethyl-phenyl)-thieno[3,2-d]pyrimidin-4-yl]-amine] cannot be ordered by melting point: 143 to 150 °C for the first, 141 to 152 °C for the second.

`OCCN(CCO)Cc1ccc(-c2cc3ncnc(Nc4ccc5[nH]ccc5c4)c3s2)cc1` (as salt: mesylate) [Example 29, 2-((2-Hydroxy-ethyl)-{4-[4-(1H-indol-5-ylamino)-thieno[3,2-d]pyrimidin-6-yl]-benzyl}-amino)-ethanol] and `OCCOCCNCc1ccc(-c2cc3ncnc(Nc4ccc5[nH]ccc5c4)c3s2)cc1` (as salt: mesylate) [Example 30, 2-(2-(4-[4-(1H-Indol-5-ylamino)-thieno[3,2-d]pyrimidin-6-yl]-benzylamino}-ethoxy)-ethanol] cannot be ordered by melting point: 110 to 127 °C for the first, 111 to 119 °C for the second.

Compared with `OCCNCCNCc1ccc(-c2cc3ncnc(Nc4ccc5[nH]ccc5c4)c3s2)cc1` (as salt: mesylate) [Example 31, 2-(2-{4-[4-(1H-indol-5-ylamino)-thieno[3,2-d]pyrimidin-6-yl]-benzylamino}-ethylamino)-ethanol], `CCCNCc1ccc(-c2cc3ncnc(Nc4ccc5[nH]ccc5c4)c3s2)cc1` [Example 21, (1H-Indol-5-yl)-[6-(4-propylaminomethyl-phenyl)-thieno[3,2-d]pyrimidin-4-yl]-amine] is higher in melting point: 78 to 95 °C for the first, 190 to 205 °C for the second.

First: c1csc(CNCc2ccc(-c3cc4ncnc(Nc5ccc6[nH]ccc6c5)c4s3)cc2)c1 (as salt: mesylate) [Example 33, (1H-Indol-5-yl)-[6-(4-{[(thiophen-2-ylmethyl)-amino]-methyl}-phenyl)-thieno[3,2-d]pyrimidin-4-yl]-amine]
Second: c1coc(CNCc2ccc(-c3cc4ncnc(Nc5ccc6[nH]ccc6c5)c4s3)cc2)c1 [Example 34, [6-(4-{[(Furan-2-ylmethyl)-amino]-methyl}-phenyl)-thieno[3,2-d]pyrimidin-4-yl]-(1H-indol-5-yl)-amine]
The melting point of the first is lower: 111 to 121 °C for the first, 125 to 134 °C for the second.

`Clc1ccc(-c2cc3ncnc(Nc4ccc5[nH]ccc5c4)c3s2)cc1` [Example 3, [6-(4-Chloro-phenyl)-thieno[3,2-d]pyrimidin-4-yl]-(1H-indol-5-yl)-amine] and `Fc1ccc(-c2cc3ncnc(Nc4ccc5[nH]ccc5c4)c3s2)cc1` [Example 4, [6-(4-Fluoro-phenyl)-thieno[3,2-d]pyrimidin-4-yl]-(1H-indol-5-yl)-amine] cannot be ordered by melting point: 190 to 210 °C for the first, 193 to 205 °C for the second.

First: COc1ccc(-c2cc3ncnc(Nc4ccc5[nH]ccc5c4)c3s2)cc1 [Example 5, (1H-Indol-5-yl)-[6-(4-methoxy-phenyl)-thieno[3,2-d]pyrimidin-4-yl]-amine]
Second: Cc1ccc(-c2cc3ncnc(Nc4ccc5[nH]ccc5c4)c3s2)cc1 [Example 6, (1H-Indol-5-yl)-(6-p-tolyl-thieno[3,2-d]pyrimidin-4-yl)-amine]
The melting point of the first is lower: 150 to 180 °C for the first, 200 to 220 °C for the second.

`c1nc(Nc2ccc3[nH]ccc3c2)c2sc(-c3ccsc3)cc2n1` [Example 8, (1H-indol-5-yl)-(6-thiophen-3-yl-thieno[3,2-d]pyrimidin-4-yl)-amine] and `Fc1ccc(-c2cc3ncnc(Nc4ccc5[nH]ccc5c4)c3s2)cc1Cl` [Example 12, [6-(3-Chloro-4-fluoro-phenyl)-thieno[3,2-d]pyrimidin-4-yl]-(1H-indol-5-yl)-amine] cannot be ordered by melting point: 178 to 189 °C for the first, 175 to 183 °C for the second.

`CSc1ccc(-c2cc3ncnc(Nc4ccc5[nH]ccc5c4)c3s2)cc1` [Example 9, (1H-Indol-5-yl)-[6-(4-methylsulfanyl-phenyl)-thieno[3,2-d]pyrimidin-4-yl]-amine] and `c1nc(Nc2ccc3[nH]ccc3c2)c2sc(-c3ccc(CNC4CC4)cc3)cc2n1` [Example 40, [6-(4-Cyclopropylaminomethyl-phenyl)-thieno[3,2-d]pyrimidin-4-yl]-(1H-indol-5-yl)-amine] cannot be ordered by melting point: 163 to 178 °C for the first, 176 to 180 °C for the second.

`O=[N+]([O-])c1cccc(-c2cc3ncnc(Nc4ccc5[nH]ccc5c4)c3s2)c1` [Example 10, (1H-Indol-5-yl)-[6-(3-nitro-phenyl)-thieno[3,2-d]pyrimidin-4-yl]-amine] and `COc1ccc(-c2cc3ncnc(Nc4ccc5[nH]ccc5c4)c3s2)cc1OC` [Example 16, [6-(3,4-Dimethoxy-phenyl)-thieno[3,2-d]pyrimidin-4-yl]-(1H-indol-5-yl)-amine] cannot be ordered by melting point: 175 to 183 °C for the first, 171 to 178 °C for the second.

Compared with `CN(C)CCNCc1ccc(-c2cc3ncnc(Nc4ccc5[nH]ccc5c4)c3s2)cc1` [Example 18, N-{4-[4-(1H-Indol-5-ylamino)-thieno[3,2-d]pyrimidin-6-yl]-benzyl}-N′,N′-dimethyl-ethane-1,2-diamine], `CN(C)CCCNCc1ccc(-c2cc3ncnc(Nc4ccc5[nH]ccc5c4)c3s2)cc1` [Example 36, N-{4-[4-(1H-Indol-5-ylamino)-thieno[3,2-d]pyrimidin-6-yl]-benzyl}-N′,N′-dimethyl-propane-1,3-diamine] is lower in melting point: 170 to 183 °C for the first, 148 to 160 °C for the second.

First: COCCCNCc1ccc(-c2cc3ncnc(Nc4ccc5[nH]ccc5c4)c3s2)cc1 [Example 22, (1H-Indol-5-yl)-(6-{4-[(3-methoxy-propylamino)-methyl]-phenyl}-thieno[3,2-d]pyrimidin-4-yl)-amine]
Second: O=C1CCCN1CCCNCc1ccc(-c2cc3ncnc(Nc4ccc5[nH]ccc5c4)c3s2)cc1 [Example 35, 1-(3-{4-[4-(1H-Indol-5-ylamino)-thieno[3,2-d]pyrimidin-6-yl]-benzylamino}-propyl)-pyrrolidin-2-one]
The melting point of the first is higher: 160 to 175 °C for the first, 139 to 146 °C for the second.

First: c1nc(Nc2ccc3[nH]ccc3c2)c2sc(-c3ccc(CNCCN4CCNCC4)cc3)cc2n1 [Example 23, (1H-Indol-5-yl)-(6-{4-[(2-piperazin-1-yl-ethylamino)-methyl]-phenyl}-thieno[3,2-d]pyrimidin-4-yl)-amine]
Second: c1nc(Nc2ccc3[nH]ccc3c2)c2sc(-c3ccc(CNCCN4CCOCC4)cc3)cc2n1 [Example 24, (1H-Indol-5-yl)-(6-{4-[(2-morpholin-4-yl-ethylamino)-methyl]-phenyl}-thieno[3,2-d]pyrimidin-4-yl)-amine]
The melting point of the first is higher: 178 to 191 °C for the first, 100 to 111 °C for the second.

First: CCOC(=O)CNC(=O)CNCc1ccc(-c2cc3ncnc(Nc4ccc5[nH]ccc5c4)c3s2)cc1 [Example 38, (2-{4-[4-(1H-indol-5-ylamino)-thieno[3,2-d]pyrimidin-6-yl]-benzylamino}-acetylamino)-acetic acid ethyl ester]
Second: NC(=O)C1CCN(Cc2ccc(-c3cc4ncnc(Nc5ccc6[nH]ccc6c5)c4s3)cc2)CC1 [Example 44, 1-{4-[4-(1H-Indol-5-ylamino)-thieno[3,2-d]pyrimidin-6-yl]-benzyl}-piperidine-4-carboxylic acid amide]
The melting point of the first is lower: 98 to 115 °C for the first, 198 to 205 °C for the second.

`COCC1CCCN1Cc1ccc(-c2cc3ncnc(Nc4ccc5[nH]ccc5c4)c3s2)cc1` (centres unmarked) [Example 42, (1H-Indol-5-yl)-{6-[4-(2-methoxymethyl-pyrrolidin-1-ylmethyl)-phenyl]-thieno[3,2-d]pyrimidin-4-yl}-amine] and `O=C(c1ccco1)N1CCN(Cc2ccc(-c3cc4ncnc(Nc5ccc6[nH]ccc6c5)c4s3)cc2)CC1` [Example 46, Furan-2-yl-(4-{4-[4-(1H-indol-5-ylamino)-thieno[3,2-d]pyrimidin-6-yl]-benzyl}-piperazin-1-yl)-methanone] cannot be ordered by melting point: 161 to 177 °C for the first, 167 to 174 °C for the second.

Compared with `COc1ccc(Nc2ccc(Nc3ncnc4cc(-c5ccccc5)sc34)cc2)cc1` [Example 62, N-(4-Methoxy-phenyl)-N′-(6-phenyl-thieno[3,2-d]pyrimidin-4-yl)-benzene-1,4-diamine], `Cc1ccc(Nc2ccc(Nc3ncnc4cc(-c5ccccc5)sc34)cc2)cc1` [Example 64, N-(6-Phenyl-thieno[3,2-d]pyrimidin-4-yl)-N′-p-tolyl-benzene-1,4-diamine] is higher in melting point: 210 to 211 °C for the first, 221 to 222 °C for the second.

Work on `COc1ccc(Nc2ccc(Nc3ncnc4cc(-c5ccccc5)sc34)cc2)cc1OC` [Example 65, N-(3,4-Dimethoxy-phenyl)-N′-(6-phenyl-thieno[3,2-d]pyrimidin-4-yl)-benzene-1,4-diamine] yielded a melting point of 160 to 161 °C.

In the case of `c1ccc(-c2cc3ncnc(Nc4ccc5[nH]ccc5c4)c3s2)cc1` [Example 2, (1H-indol-5-yl)-(6-phenyl-thieno[3,2-d]pyrimidin-4-yl)-amine], the melting point is reported as 255 to 258 °C (dec.).
